For one series, the target named is T1, IDH1-R132H (Homo sapiens, UniProt O75874, R132H).
T1 construct: expressed in transfected cells; host or cells: U87MG cells (U87MGR132H)
The experiment in a line: Fluorescent determination of IDH1-R132H cell activity (2-HG in U87MGR132H cells). Format: cell-based. Conditions: 2-HG inhibition in U87MGR132H cells transfected with IDH1-R132H mutant plasmid.

In a further series the target is T2, IDH2-R140Q (Homo sapiens, UniProt P48735, R140Q).
T2 construct: expressed in transfected cells
T2 sequence (P48735 40-452 R140Q): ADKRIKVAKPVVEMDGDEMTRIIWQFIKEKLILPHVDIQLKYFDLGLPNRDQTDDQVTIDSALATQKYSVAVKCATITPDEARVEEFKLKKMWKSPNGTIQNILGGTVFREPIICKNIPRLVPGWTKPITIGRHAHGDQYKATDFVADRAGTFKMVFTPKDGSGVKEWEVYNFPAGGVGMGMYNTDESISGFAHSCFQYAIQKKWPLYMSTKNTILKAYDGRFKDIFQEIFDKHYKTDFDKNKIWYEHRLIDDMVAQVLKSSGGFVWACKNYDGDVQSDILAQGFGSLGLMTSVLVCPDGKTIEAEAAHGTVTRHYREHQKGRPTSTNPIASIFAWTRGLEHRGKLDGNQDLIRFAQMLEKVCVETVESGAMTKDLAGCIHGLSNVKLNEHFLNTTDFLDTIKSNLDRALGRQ
The experiment in a line: Fluorescent determination of IDH2-R140Q cell activity (2-HG in U87MGR140Q cells). Format: cell-based. Conditions: 72 hours incubation, read-out: IC50 (2-HG inhibition).

The nature of series [1]: Metabolic stability test in liver microsomes (rat). Format: in vitro ADME. Conditions: percentage of remaining compound after incubation for 30 minutes vs 0 minute; 1 μM compound; 0.5 mg/mL liver microsomes; 37° C. The procedure:
(§1) Male CD1 mouse liver microsomes was supplied by Research Institute for Liver Diseases (Shanghai) Co., Ltd. Male SD rat liver microsomes was supplied by BioreclamationIVT in US.
(§2) Phenacetin, glucose-6-phosphate (G-6-P), glucose-6-phosphate dehydrogenase (G-6-PD), and nicotinamide adenine dinucleotide phosphate (NADP) were supplied by Sigma-Aldrich (Missouri, USA).
(§3) 10 mM stock solution of test compound: Certain amount of test compound was weighed and dissolved in certain volume of dimethylsulfoxide (DMSO) to get the stock solution of test compound at 10 mM.
(§4) Reaction termination solution: Certain amount of phenacetin as internal standard was weighed and dissolved in acetonitrile to get the reaction termination solution at 1000 ng/mL, and stored at room temperature for use.
(§5) The stock solution of test compound was diluted to the designated concentration with organic solution (usually the mixtures of acetonitrile, methanol and water with different portions depending on the compound solution) to make the final concentration to be 1 μM and the contents of organic solvents no more than 1% (For DMSO, the controlled margin was 0.1%) in the final incubation system. 100 mM NADP, 500 mM G-6-P and 100 U/mL G-6-PDH were mixed and diluted with ultrapure water to provide the NADPH regenerating system containing 1 mM NADP, 5 mM G-6-P and 1 U/mL G-6-PD, which was pre-incubated at 37° C. water-bath for 10 min and then cooled on ice until being added into the reaction system. 20 mg/mL liver microsomes was mixed with 200 mM PBS and diluted with ultrapure water to make the concentrations of liver microsomes and PBS to be 0.5 mg/mL and 50 mM in the final incubation system, respectively. After the diluted liver microsomes was mixed with the NADPH regenerating solution, certain volumes of 100 mM EDTA and 300 mM MgCl2 (concentration of EDTA and MgCl2 in the final incubation system is 1 mM and 3 mM, respectively) were added, and the incubation system was put into 37° C. water bath. The incubation was commenced by adding the stock solution of test compound and maintained for 30 min. The incubation was terminated by adding the reaction termination solution. The 0 min sample was prepared by adding the reaction termination solution to the incubation system immediately prior to putting the system into the water bath with the addition of the stock solution of test compound. The terminated incubation mixtures were vortexed and centrifuged at 4400 rpm for 10 min, and the supernatant was collected for LC-MS/MS analysis.
(§6) The concentration of test compound was determined using LC-MS/MS method. Using the peak area ratio of the compound and the internal standard as an index, the percentage of remaining compound after incubation for 30 minutes as compared with the 0 minute sample was calculated, and the metabolic stability of the compound was evaluated.

A short description of series [2]: Metabolic stability test in liver microsomes (mouse). Conditions: percentage of remaining compound after incubation for 30 minutes vs 0 minute; 1 μM compound; 0.5 mg/mL liver microsomes; 37° C. Format: in vitro ADME. The procedure:
as §1, §2, §3, §4, §5, §6

Series [3] can be described thus: Determination of solubility in sodium phosphate buffers. Conditions: aqueous buffer, thermodynamic from solid. Format: physicochemical. Here is the method:
• Sample standard solution: About 3-5 mg test compound was accurately weighed and added into a 5 mL sample tube, 5 mL DMSO was added. Shaking and sonicating for 1 hour. • pH 2.1 sample solution: About 1 mg test compound was accurately weighed and added into a 1 mL sample tube, 1 mL pH 2.1 sodium phosphate buffer was added. Shaking. Adding test compound to the solution, if the solution is visually clear, till there is obvious insoluble in the solution. Sonicating for 1 hour. • pH 7.4 sample solution: About 1 mg test compound was accurately weighed and added into a 1 mL sample tube, 1 mL pH 7.4 sodium phosphate buffer was added. Shaking. Adding test compound to the solution, if the solution is visually clear, till there is obvious insoluble in the solution. Sonicating for 1 hour. 2. Determination • 1 mL sample standard solution was accurately pipetted into a HPLC tube. The peak area was determined by HPLC. • 0.5 mL pH 2.1 sample solution was filtered by syringe filter and was accurately pipetted into a HPLC tube, and 0.5 mL pH 2.1 sodium phosphate buffer was accurately added. Shaking. The peak area was determined by HPLC. • 0.5 mL pH 7.4 sample solution was filtered by syringe filter and was accurately pipetted into a HPLC tube, and 0.5 mL pH 7.4 sodium phosphate buffer was accurately added. Shaking. The peak area was determined by HPLC. • HPLC condition: • Instrument: Agilent 1200 • Column: Agilent SB-C18 5 u 4.6*150 mm • Mobile phase: • Phase A: Water (containing 0.1% formic acid) • Phase B: MeOH (containing 0.1% formic acid)

Where two headings read alike, the source gives them in different places.

A word on the IC50: it is the concentration that inhibits the measured activity by half. One may read the solubility as how much of the substance goes into solution per volume.

T1 sequence (O75874 whole entry R132H): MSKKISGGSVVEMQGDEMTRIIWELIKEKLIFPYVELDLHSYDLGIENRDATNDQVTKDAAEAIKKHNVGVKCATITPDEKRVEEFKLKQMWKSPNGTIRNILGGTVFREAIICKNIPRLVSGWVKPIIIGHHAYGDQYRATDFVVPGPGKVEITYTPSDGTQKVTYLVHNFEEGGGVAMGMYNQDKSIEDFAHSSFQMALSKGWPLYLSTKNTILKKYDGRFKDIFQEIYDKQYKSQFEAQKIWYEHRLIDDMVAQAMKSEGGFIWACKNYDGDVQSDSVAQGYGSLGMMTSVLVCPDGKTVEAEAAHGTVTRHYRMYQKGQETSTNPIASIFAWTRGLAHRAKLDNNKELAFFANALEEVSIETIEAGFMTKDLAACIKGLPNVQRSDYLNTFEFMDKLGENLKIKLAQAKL

As for `CC(C)Nc1nc(N[C@H](C)C(F)(F)F)nc(C2=C(F)C(O)C(F)(F)CC2)n1` (stereo partly drawn) [Compound 94, 2,6,6-Trifluoro-3-(4-(isopropylamino)-6-(((R)-1,1,1-trifluoropropan-2-yl)amino)-1,3,5-triazin-2-yl)cyclohex-2-en-1-ol], the IC50 against IDH1-R132H was 1140 nM; on IDH2-R140Q, 131 nM. Moreover, the “Rat liver microsome stability” value in series [1] is on record as 82.6%. The “Mouse liver microsome stability” value in series [2] amounted to 65.4%.
As to `C[C@@H](Nc1nc(NCc2ccccn2)nc(C2=C(F)C(O)C(F)(F)CC2)n1)C(F)(F)F` (mixture of isomers) [Compound 271], the solubility at 1 h came to 974 µg/mL in series [3] (pH 2.1 sodium phosphate buffer, read-out: Solubility pH 2.1) and 124 µg/mL in series [3] (pH 7.4 sodium phosphate buffer, read-out: Solubility pH 7.4).
Turning to `OC1C(F)=C(c2nc(NC3CC(F)(F)C3)nc(NC3CC(F)(F)C3)n2)CCC1F` (single isomer, unassigned) [Compound 201], the IC50 is 109 nM against IDH1-R132H and 45 nM on IDH2-R140Q. In addition, the “Rat liver microsome stability” value in series [1] turned out to be 91.6%. For the same compound, the “Mouse liver microsome stability” value in series [2] came to 79.3%.
The corresponding values for `[2H]C1([2H])CCC(c2nc(N[C@@H](C)C(F)(F)F)nc(N[C@@H](C)C(F)(F)F)n2)=C(F)C1O` (some centres unmarked) [Compound 87] are 781 nM, 205 nM, 97.9% and 88.5%.
`C[C@@H](Nc1nc(NC2CCC2)nc(C2=C(F)C(O)CCC2)n1)C(F)(F)F` (mixture of isomers) [Compound 7]: the IC50 amounted to 1500 nM on IDH1-R132H and 87 nM on IDH2-R140Q. Besides, the “Rat liver microsome stability” value in series [1] was 50.3%. In addition, in series [2], the “Mouse liver microsome stability” value amounted to 49.8%.
The like results for `C[C@@H](Nc1nc(N[C@H](C)C(F)(F)F)nc(C2=C(F)C(O)CCC2)n1)C(F)(F)F` (mixture of isomers) [Compound 2] were, in that order, 365 nM, 137 nM, 99.0% and 83.8%.
As to `OC1C=C(c2nc(NC3CC(F)(F)C3)nc(NC3CC(F)(F)C3)n2)CCC1` (centres unmarked) [Compound 127], the results for the IC50 on IDH1-R132H and on IDH2-R140Q were 203 nM and 64 nM, respectively. Besides, in series [1], the “Rat liver microsome stability” value is listed as 49.8%. Further, the “Mouse liver microsome stability” value in series [2] turned out to be 28.7%.
The corresponding values for `C[C@@H](Nc1nc(N[C@H](C)C(F)(F)F)nc(C2=C(F)C(O)C(F)(F)CC2)n1)C(F)(F)F` (single isomer, unassigned) [Compound 197] are 120 nM, 41 nM, 99.5% and 98.4%.
The like results for `C[C@@H](Nc1nc(NC2CCC(F)(F)C2)nc(C2=CC(O)CCC2)n1)C(F)(F)F` (mixture of isomers) [Compound 177] were, in that order, 94 nM, 46 nM, 45.9% and 31.0%.
In the case of `C[C@H](Nc1nc(N[C@H](C)C(F)(F)F)nc(C2=C(F)C(O)CCC2)n1)C(F)(F)F` (mixture of isomers) [Compound 11], the IC50 against IDH1-R132H amounted to 1020 nM; on IDH2-R140Q, 284 nM. The “Rat liver microsome stability” value in series [1] was determined as 87.6%. In addition, the “Mouse liver microsome stability” value in series [2] is 80.3%.
The like results for `[2H]C1([2H])CCC(c2nc(NC3CC(F)(F)C3)nc(N[C@@H](C)C(F)(F)F)n2)=C(F)C1O` (some centres unmarked) [Compound 84] were, in that order, 268 nM, 48 nM, 67.8% and 78.9%.
The corresponding values for `C[C@@H](Nc1nc(NC2CC(F)(F)C2)nc(C2=C(F)C(O)C(F)CC2)n1)C(F)(F)F` (single isomer, unassigned) [Compound 227] are 81 nM, 48 nM, 88.8% and 81.4%.
The corresponding values for `[2H]C1(O)CCCC(c2nc(NC3CC(F)(F)C3)nc(NC3CC(F)(F)C3)n2)=C1F` (centres unmarked) [Compound 19] are 421 nM, 83 nM, 83.8% and 66.2%.
For the compound `[2H]C1(O)C(F)=C(c2nc(N[C@H](C)C(F)(F)F)nc(N[C@H](C)C(F)(F)F)n2)CCC1(F)F` (mixture of isomers) [Compound 211], the IC50 at IDH1-R132H came out at 175 nM; at IDH2-R140Q it was 97 nM. Moreover, the “Rat liver microsome stability” value in series [1] amounted to 98.8%. Moreover, the “Mouse liver microsome stability” value in series [2] came to 99.7%.
The corresponding values for `CC(C)Nc1nc(N[C@H](C)C(F)(F)F)nc(C2=CC(O)CCC2)n1` (mixture of isomers) [Compound 124, 3-(4-(Isopropylamino)-6-(((R)-1,1,1-trifluoropropan-2-yl)amino)-1,3,5-triazin-2-yl)cyclohex-2-en-1-ol] are 658 nM, 137 nM, 74.1% and 44.1%.
The like results for `[2H]C1(O)CCCC(c2nc(N[C@H](C)C(F)(F)F)nc(N[C@H](C)C(F)(F)F)n2)=C1F` (mixture of isomers) [Compound 18] were, in that order, 219 nM, 110 nM, 91.5% and 82.7%.
For the compound `C[C@@H](Nc1nc(N[C@@H]2CCC(F)(F)C2)nc(C2=C(F)C(O)C(F)(F)CC2)n1)C(F)(F)F` (mixture of isomers) [Compound 235], the figures for the IC50 against IDH1-R132H and on IDH2-R140Q were 246 nM and 130 nM, respectively. In addition, the “Rat liver microsome stability” value in series [1] was 89.0%. In addition, the “Mouse liver microsome stability” value in series [2] is 75.5%.
The like results for `OC1C(F)=C(c2nc(NC3CC(F)(F)C3)nc(NC3CC(F)(F)C3)n2)CCC1(F)F` (centres unmarked) [Compound 203] were, in that order, 733 nM, 98 nM, 92.1% and 91.3%.
The corresponding values for `C[C@H](Nc1nc(NC2CC(F)(F)C2)nc(C2=C(F)C(O)C(F)(F)CC2)n1)C(F)(F)F` (mixture of isomers) [Compound 239] are 344 nM, 46 nM, 93.0% and 91.8%.

The record behind these values is patent publication US12234211B2, “Cycloolefin substituted heteroaromatic compounds and their use” (HUTCHISON MEDIPHARMA LIMITED, priority 2017, dated 2025).
